Values of other authors as cited in patent US20200268761A1 (CIPLA LIMITED, priority 2017, published 2020).

What was measured:
CYP3A4 = CYP3A4 (Homo sapiens, UniProt P08684); details: major drug metabolizing enzyme
p-glycoprotein = p-glycoprotein (Homo sapiens, UniProt P08183)
Sequence of p-glycoprotein (P08183 whole entry): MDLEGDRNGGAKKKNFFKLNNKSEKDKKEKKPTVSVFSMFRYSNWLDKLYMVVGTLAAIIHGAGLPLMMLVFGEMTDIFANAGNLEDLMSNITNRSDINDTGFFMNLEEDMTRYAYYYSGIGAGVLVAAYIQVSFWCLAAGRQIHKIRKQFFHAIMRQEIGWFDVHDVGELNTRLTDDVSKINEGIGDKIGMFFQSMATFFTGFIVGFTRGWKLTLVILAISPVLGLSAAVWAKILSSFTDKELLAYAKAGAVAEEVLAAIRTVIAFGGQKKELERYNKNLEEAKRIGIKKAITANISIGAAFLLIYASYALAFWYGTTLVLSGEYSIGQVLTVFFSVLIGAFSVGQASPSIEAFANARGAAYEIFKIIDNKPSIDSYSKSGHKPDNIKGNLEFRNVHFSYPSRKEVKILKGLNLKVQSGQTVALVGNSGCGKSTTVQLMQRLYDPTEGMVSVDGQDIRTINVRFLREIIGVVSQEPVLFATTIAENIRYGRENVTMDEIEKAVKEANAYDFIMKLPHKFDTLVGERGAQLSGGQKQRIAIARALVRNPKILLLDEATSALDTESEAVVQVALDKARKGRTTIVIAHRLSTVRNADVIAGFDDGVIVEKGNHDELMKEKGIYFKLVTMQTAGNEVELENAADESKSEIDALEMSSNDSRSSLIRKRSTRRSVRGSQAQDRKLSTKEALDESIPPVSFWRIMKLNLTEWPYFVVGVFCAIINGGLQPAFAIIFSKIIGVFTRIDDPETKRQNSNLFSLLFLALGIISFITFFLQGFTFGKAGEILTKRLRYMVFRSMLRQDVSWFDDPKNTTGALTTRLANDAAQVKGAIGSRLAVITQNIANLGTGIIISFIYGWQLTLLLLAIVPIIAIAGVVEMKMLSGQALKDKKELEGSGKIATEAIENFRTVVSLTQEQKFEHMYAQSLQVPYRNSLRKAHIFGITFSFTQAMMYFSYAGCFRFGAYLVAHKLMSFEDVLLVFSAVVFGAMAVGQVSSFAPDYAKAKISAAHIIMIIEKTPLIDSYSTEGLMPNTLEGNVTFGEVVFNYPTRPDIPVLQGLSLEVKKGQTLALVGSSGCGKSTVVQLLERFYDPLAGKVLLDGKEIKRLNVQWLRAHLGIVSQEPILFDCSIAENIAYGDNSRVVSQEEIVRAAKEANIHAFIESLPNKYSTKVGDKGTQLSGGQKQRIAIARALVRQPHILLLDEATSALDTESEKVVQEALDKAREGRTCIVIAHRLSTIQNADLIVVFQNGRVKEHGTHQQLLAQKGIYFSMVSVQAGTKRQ

Sequence of CYP3A4 (P08684 whole entry, species assumed): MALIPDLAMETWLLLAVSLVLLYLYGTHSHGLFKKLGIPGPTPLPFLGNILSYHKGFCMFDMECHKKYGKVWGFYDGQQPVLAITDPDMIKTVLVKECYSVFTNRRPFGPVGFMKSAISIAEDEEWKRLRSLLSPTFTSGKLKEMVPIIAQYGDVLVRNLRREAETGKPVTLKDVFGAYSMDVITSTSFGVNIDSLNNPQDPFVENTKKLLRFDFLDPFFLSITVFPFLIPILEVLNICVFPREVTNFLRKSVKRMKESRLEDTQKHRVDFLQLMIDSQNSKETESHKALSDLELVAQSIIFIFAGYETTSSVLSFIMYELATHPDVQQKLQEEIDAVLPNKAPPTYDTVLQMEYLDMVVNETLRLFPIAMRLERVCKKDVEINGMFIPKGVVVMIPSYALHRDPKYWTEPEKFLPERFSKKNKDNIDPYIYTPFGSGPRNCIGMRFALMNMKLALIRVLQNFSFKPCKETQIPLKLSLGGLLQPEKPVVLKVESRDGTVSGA

Compound	solubility in HCl at pH 1.2 (HCl, pH 1.2)	solubility in N,N-dimethylformamide, tetrahydrofuran and dichloromethane (N,N-dimethylformamide, tetrahydrofuran, dichloromethane)	solubility in acetone and methanol (acetone, methanol)	solubility in ethyl acetate, ethanol and acetonitrile (ethyl acetate, ethanol, acetonitrile)	solubility in non-polar solvents (non-polar solvents such as hexane and heptanes)	solubility in water (water, ibrutinib base)	inhibition of CYP3A4 (CYP3A4)	inhibition of p-glycoprotein (p-glycoprotein)
C=CC(=O)N1CCC[C@@H](n2nc(-c3ccc(Oc4ccccc4)cc3)c3c(N)ncnc32)C1 [Ibrutinib]	slightly soluble	freely soluble	soluble	sparingly soluble	practically insoluble	practically insoluble		
O=C(/C=C/C=C/c1ccc2c(c1)OCO2)N1CCCCC1 [Piperine, (E.E.) 1˜[5,3-benzodioxyl-5-yl)-1-oxo-2,4-pentadienyl-piperidine]							inhibits	inhibits
